In US6710051B1, “Screening method” (Klaus Trier APS, priority 1997, dated 2004):
Read-outs that look alike come from different tables or passages of the source. Marks after values point to notes of the source that are not given here.

Columns and labels:
sclera [1] = assay: Content of collagen specific amino acids in rabbit sclera after long term treatment (HPLC); assay type: in vivo; set-up: Hydroxylysine Decr. compared to the control / Hydroxyproline Inc. compared to the control / Proline Inc. compared to the control: concentration or dose not given beside the values; conditions: for Hydroxylysine content / Hydroxyproline content / Proline content: dried defatted weight
From the text: (§1) Test animal: Charles River Deutschland Chinchilla Bastard female rabbits.
(§2) Number of animals: 6 test animals and 6 control animals
(§3) Age: approximately 8 weeks at the commencement of the test.
(§4) Weight: 1.4-1.9 kg at the commencement of the test.
(§5) Cages: The animals live in identical cages made of stainless steel (Scanbur), length 1 m, depth 0.52 m, height 0.5 m.
(§6) Amount of food: Increasing from 75 g per day at the commencement of the test up to 130 g after three months.
(§7) Experimental drinking water 1 contained theophyllin in a dose equivalent of 27 mg increasing to 63 mg (added as theophyllin and ethylendiamin in a dose of 33 to 77 mg) daily.
(§8) Experimental drinking water 2 contained fluoxetine (Fontex, Lilly) in a dose equivalent of 2 mg increasing to 5 mg daily.
(§9) Experimental diet 3 was added 7-methylxanthine 500 mg per kg Stanrab standard diet equivalent of a daily 7-methylxanthine dose of […] per day.
(§10) Experimental diet 4 was added theobromine (3,7-dimethylxanthine) 500 mg per kg Stanrab standard diet equivalent of a daily theobromine dose of […] per day.
(§11) Experimental diet 5 was added acetazolamide 500 mg per kg Stanrab standard diet equivalent of a daily acetazolamide dose of […] per day.
(§12) Collection of sample: Sclera biopsies are taken for analysis for proteoglycane content, distribution between the individual glycosaminoglycanes and the content of collagen specific amino acids. Four tests from each animal: Two samples from the front, 5×10 mm along limbus (without cornea), and two samples from the back, punch 10 mm corresponding to the center of the retina. Furthermore, tests are taken for electron microscopy (EM) from two animals in each group.
Samples for analysis for content of collagen specific amino acids are frozen down immediately. The amino acid content is determined by HPLC-chromatography.
The dried tissue with constant weight is minced into very fine particles with a pair of scissors, approximately 20 per piece of tissue. The small flakes from each original piece of tissue ate divided into two equally sized portions, one of which is employed for hydrolysis and the other one is kept for reference. The constant dry weight of each portion is known.
From each resolubilized hydrolysate 3 aliquots of each 8 microliters and 3 aliquots of 40 μl are taken and transferred to separate polypropylene tubes in which 20 microliters of a solution of internal standard substances citrulline and 2 aminobutyric acid were added where the further method takes place.
The taken aliquots from hydrolysate are dried in a vacuum exsiccator at 35° C. over night and subsequently submitted to derivatization with phenylisothiocyanate.
The resulting phenylisothiocarbamates are transferred to the HPLC instrument for separation and quantification. A new set of calibration curves is established, 1 curve for each of the 19 amino acids, prior to the analysis of the samples from one investigation.
The concentration range of standard samples exceed the ranges of amino acid concentrations in the unknowns. Hydroxyproline and proline are quantitated from the 8 microliter aliquots, and hydroxylysine is quantitated from the 40 microliter aliquots.

sclera [2] = assay: Content of proteoglycanes in rabbit sclera after long term treatment (alcian blue method); assay type: in vivo; set-up: Proteoglycanes Decrease compared to the control, anterior sclera / Proteoglycanes Increase compared to the control, anterior sclera / Proteoglycanes Increase compared to the control, posterior sclera / Effect on proteoglycan content of posterior sclera in % compared to control: concentration or dose not given beside the values; conditions: for Content of proteoglycanes, anterior sclera / Content of proteoglycanes, posterior sclera: wet weight
Procedure: as §1, §2, §3, §4
Lightness/Darkness cycle: 12/12 hours.
as §5
Food: Stanrab standard diet from Special Diet Services, P.O. Box 705, Witham Essex CM8 3AD, UK (further details, see Table A).
as §6, §7, §8
Experimental diet 2 was added 4.5 g L-cystine per kg Stanrab standard diet equivalent of a daily L-cystine dose of 338 mg increasing to 585 mg per day. With respect to the supplement of L-cystine, the normal intake per day of the standard diet is 218 mg increasing to 377 mg L-cystine.
as §9, §10, §11
Experimental diet 6 was added 4.5 g L-ornithine per kg Stanrab standard diet equivalent of a daily L-ornithine dose of 338 mg increasing to 585 mg per day.
as §12
Analyses: Samples for proteoglycane analysis are frozen down immediately. The samples are analyzed by Wieslab AB, IDEON, S-223 70 Lund, Sweden, by means of a method which has been described by Björnsson, S., Analytical Biochemistry 210, 282-291 (1993). The method comprises extraction by 20 microliters of 4 M guanidine-HCl, 50 Mm sodium acetate per mg wet weight over night by room temperatures. The extracts are centrifuged in order to remove debris. 20 microliters of supernatant are reduced 1/10 in extraction buffer and 20 microliters of reduced supernatant are mixed with 10 microliters of reagent 1 (see Björnsson, S., Analytical biochemistry 210, 282-291 (1993)) on a shaking table for 15 minutes. 200 microliters of reagent 2 are added and the tests are incubated for 60 minutes in order to precipitate the proteoglycanes. The proteoglycane/alcian blue precipitate is transferred to 96-wells MillBlotD apparatus and washed with 2×200 microliters of 40% DMSO, 0.05 M of MgCl2. The colour intensity of the wells are quantitated by microtech E3 scanner and Scan Analysis software (Biosoft, Cambridge, U.K.). Chrondroitine-6-sulphate (Sigma C4384) is used as the calibrator. All samples are analyzed in duplicate.
The results of longterm treatment with each of the 8 substances specified above are shown in Example 2 (treatment for 12 weeks) and Example 4 (treatment for 10 weeks).

sclera [3] = assay: Content of collagen specific amino acids in rabbit sclera after long term treatment (HPLC); assay type: in vivo; conditions: dried defatted weight, 10 weeks treatment (Example 4)
skeletal RyR = molecular target: T1, skeletal RyR (Oryctolagus cuniculus, UniProt P11716); conditions: xanthine […], cited from earlier work; for Bound [3H]ryanodine % of control / Bound [3H]ryanodine pmol/mg protein: 1 mmol/l AMPPCP; for Bound [3H]ryanodine pmol/mg protein: means±SD of 3-4 experiments
T1 construct: Structure-activity Relationship of Xanthines and Skeletal Muscle Ryanodine Receptor/Ca^2+ Release Channel; from tissue; host or cells: Skeletal muscle
T1 sequence (P11716 whole entry): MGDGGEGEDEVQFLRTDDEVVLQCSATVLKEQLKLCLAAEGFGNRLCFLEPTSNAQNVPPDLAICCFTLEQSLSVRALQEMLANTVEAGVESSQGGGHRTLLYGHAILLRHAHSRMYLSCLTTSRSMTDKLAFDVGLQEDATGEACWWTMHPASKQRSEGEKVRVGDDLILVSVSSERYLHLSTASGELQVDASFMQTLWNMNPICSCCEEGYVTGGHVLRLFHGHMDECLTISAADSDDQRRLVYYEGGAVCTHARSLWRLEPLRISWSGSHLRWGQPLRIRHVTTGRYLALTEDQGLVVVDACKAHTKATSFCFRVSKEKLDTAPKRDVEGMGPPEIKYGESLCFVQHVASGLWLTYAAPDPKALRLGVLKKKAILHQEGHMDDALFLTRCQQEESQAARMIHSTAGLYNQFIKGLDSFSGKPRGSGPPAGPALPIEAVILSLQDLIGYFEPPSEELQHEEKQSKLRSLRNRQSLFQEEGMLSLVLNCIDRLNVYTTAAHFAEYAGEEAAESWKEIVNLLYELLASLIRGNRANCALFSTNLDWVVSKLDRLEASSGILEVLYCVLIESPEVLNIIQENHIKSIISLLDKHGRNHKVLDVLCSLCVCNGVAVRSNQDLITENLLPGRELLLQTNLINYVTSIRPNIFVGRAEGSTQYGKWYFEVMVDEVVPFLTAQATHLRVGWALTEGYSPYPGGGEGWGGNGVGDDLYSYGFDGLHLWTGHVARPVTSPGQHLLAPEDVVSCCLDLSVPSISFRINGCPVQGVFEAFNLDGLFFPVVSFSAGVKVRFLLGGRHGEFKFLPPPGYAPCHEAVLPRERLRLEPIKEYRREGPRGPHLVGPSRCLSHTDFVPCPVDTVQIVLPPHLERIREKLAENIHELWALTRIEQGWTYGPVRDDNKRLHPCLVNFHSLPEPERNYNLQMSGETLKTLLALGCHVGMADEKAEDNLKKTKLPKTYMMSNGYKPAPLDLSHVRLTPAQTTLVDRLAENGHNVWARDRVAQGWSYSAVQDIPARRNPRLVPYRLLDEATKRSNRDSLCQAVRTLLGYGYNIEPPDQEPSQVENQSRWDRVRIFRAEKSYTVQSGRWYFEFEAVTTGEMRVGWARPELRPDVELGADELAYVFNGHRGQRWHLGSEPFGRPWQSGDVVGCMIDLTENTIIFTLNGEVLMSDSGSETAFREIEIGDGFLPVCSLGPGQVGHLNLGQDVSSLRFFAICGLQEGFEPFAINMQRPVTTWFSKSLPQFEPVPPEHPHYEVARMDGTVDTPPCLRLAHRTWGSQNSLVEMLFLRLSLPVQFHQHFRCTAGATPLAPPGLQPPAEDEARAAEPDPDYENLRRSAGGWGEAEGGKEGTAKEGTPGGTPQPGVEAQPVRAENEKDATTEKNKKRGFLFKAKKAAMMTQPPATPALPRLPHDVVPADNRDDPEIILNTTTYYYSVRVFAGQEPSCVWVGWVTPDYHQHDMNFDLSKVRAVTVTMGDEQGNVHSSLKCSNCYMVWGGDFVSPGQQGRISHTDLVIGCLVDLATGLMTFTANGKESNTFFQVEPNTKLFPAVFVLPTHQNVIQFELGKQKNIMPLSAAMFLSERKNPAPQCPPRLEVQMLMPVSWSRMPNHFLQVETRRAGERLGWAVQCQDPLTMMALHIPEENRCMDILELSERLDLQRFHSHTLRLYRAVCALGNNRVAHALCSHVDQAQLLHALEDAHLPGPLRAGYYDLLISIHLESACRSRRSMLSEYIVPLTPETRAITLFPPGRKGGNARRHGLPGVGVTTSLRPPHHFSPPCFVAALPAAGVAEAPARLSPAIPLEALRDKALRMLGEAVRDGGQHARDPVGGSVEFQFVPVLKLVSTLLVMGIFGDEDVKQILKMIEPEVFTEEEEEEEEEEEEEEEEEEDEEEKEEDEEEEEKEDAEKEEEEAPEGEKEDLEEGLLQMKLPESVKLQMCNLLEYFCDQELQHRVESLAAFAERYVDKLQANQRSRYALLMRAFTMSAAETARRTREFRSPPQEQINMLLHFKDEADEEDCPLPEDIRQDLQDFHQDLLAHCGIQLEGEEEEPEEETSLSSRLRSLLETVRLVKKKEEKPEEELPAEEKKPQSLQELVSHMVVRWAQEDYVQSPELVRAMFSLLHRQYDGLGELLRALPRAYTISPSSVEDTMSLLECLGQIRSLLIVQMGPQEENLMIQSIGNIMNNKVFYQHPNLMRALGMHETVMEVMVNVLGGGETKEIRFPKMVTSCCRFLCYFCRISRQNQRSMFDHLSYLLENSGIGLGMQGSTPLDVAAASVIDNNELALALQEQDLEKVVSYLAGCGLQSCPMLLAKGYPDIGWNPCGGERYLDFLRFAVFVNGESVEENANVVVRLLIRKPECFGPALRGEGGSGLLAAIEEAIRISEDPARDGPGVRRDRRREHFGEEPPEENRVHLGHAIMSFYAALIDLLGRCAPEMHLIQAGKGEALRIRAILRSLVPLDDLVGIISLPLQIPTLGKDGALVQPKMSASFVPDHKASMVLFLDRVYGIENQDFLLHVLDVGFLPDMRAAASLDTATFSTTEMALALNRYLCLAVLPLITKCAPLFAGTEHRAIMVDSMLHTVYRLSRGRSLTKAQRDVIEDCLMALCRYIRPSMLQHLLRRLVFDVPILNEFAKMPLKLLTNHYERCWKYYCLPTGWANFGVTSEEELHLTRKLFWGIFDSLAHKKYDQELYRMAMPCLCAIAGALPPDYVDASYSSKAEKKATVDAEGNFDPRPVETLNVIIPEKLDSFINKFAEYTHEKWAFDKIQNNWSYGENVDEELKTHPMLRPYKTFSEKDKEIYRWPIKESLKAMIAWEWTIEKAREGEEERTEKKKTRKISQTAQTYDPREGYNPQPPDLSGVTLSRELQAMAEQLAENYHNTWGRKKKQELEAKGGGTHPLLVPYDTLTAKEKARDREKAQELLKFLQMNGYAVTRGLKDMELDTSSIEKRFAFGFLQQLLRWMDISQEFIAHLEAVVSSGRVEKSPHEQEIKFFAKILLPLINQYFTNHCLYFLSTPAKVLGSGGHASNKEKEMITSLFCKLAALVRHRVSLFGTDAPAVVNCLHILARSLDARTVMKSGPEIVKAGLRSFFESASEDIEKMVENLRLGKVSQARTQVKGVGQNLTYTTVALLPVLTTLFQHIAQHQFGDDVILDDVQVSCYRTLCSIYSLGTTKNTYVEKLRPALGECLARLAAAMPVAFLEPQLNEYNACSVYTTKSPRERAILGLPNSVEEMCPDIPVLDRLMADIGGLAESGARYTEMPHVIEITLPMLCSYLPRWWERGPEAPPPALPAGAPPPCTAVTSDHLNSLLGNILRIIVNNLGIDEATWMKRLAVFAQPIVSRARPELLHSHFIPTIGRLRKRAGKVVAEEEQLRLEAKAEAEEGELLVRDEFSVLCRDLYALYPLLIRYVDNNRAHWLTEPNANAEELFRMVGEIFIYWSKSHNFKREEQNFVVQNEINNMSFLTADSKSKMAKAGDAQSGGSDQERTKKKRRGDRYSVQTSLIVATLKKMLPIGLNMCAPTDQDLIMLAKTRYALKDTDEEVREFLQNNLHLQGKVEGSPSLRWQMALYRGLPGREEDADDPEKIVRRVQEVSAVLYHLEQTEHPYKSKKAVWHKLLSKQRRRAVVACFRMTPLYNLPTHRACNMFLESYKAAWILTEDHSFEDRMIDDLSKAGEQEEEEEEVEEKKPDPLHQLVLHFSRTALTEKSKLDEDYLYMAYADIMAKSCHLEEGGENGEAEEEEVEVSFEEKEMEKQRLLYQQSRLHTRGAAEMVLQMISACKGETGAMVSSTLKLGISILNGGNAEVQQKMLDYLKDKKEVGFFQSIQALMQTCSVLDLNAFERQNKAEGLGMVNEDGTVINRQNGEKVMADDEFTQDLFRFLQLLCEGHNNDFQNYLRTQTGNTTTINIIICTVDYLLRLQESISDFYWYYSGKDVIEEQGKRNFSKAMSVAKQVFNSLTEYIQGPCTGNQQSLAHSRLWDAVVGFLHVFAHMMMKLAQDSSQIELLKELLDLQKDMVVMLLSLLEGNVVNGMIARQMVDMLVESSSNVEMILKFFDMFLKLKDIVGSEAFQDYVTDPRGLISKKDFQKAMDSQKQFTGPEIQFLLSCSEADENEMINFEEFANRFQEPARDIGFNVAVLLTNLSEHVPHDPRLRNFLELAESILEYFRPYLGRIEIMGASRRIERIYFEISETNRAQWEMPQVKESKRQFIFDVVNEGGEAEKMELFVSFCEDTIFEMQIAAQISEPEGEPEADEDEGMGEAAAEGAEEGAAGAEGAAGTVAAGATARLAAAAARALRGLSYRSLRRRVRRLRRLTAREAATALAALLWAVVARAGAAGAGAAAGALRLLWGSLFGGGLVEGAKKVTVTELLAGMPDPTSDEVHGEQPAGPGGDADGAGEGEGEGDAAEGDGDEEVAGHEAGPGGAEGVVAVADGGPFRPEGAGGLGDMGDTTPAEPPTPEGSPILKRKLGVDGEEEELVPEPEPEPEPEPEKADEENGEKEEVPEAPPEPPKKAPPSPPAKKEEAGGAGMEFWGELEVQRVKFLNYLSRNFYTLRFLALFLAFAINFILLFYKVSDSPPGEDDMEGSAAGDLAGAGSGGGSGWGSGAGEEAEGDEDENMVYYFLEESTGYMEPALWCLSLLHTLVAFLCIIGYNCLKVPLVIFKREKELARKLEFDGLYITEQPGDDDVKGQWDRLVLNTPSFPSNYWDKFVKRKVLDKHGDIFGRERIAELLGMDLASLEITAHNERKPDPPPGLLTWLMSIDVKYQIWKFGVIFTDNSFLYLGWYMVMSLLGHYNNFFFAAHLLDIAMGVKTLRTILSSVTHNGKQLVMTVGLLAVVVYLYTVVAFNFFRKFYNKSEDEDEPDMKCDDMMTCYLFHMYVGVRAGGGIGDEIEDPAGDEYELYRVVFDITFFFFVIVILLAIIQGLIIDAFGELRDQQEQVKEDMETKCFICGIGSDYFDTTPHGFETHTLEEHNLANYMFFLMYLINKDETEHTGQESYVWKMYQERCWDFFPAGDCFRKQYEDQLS

[4] = anterior sclera, 3 months treatment
[5] = posterior sclera, 3 months treatment

CNCCC(Oc1ccc(C(F)(F)F)cc1)c1ccccc1 (centres unmarked) [Fluoxetine, fluoxetine]
Hydroxylysine Decr. compared to the control (sclera [1]; [4]): 20%
Hydroxylysine content (sclera [1]; [4]): 33 +/− 11 nanomol/mg tissue
Hydroxyproline content (sclera [1]; [4]): 619 +/− 40 nanomol/mg tissue
Proline content (sclera [1]; [4]): 896 +/− 21 nanomol/mg tissue
Hydroxyproline Inc. compared to the control (sclera [1]; [5]): 17%
Proline Inc. compared to the control (sclera [1]; [5]): 15%
Hydroxylysine content (sclera [1]; [5]): 41 +/− 13 nanomol/mg tissue
Hydroxyproline content (sclera [1]; [5]): 640 +/− 31 nanomol/mg tissue
Proline content (sclera [1]; [5]): 927 +/− 15 nanomol/mg tissue
Proteoglycanes Decrease compared to the control, anterior sclera (sclera [2]; 3 months treatment): 19%
Content of proteoglycanes, anterior sclera (sclera [2]; 3 months treatment): 2.2 +/− 0.4* μg PG/mg tissue
Content of proteoglycanes, posterior sclera (sclera [2]; 3 months treatment): 2.6 +/− 0.2 μg PG/mg tissue

NCCC[C@H](N)C(=O)O [L-ornithine]
Hydroxylysine Decr. (sclera [1]; posterior sclera, 10 weeks treatment (Example 4)): 7%
Content of proteoglycanes, anterior sclera (sclera [2]; 10 weeks treatment (Example 4)): 3.0 +/− 1.1 μg PG/mg tissue
Content of proteoglycanes, posterior sclera (sclera [2]; 10 weeks treatment (Example 4)): 3.0 +/− 0.9 μg PG/mg tissue
Hydroxylysine content (sclera [3]; anterior sclera): 37 +/− 4 nanomol/mg tissue
Hydroxyproline content (sclera [3]; anterior sclera): 605 +/− 37 nanomol/mg tissue
Proline content (sclera [3]; anterior sclera): 875 +/− 48 nanomol/mg tissue
Hydroxylysine content (sclera [3]; posterior sclera): 38 +/− 5 nanomol/mg tissue
Hydroxyproline content (sclera [3]; posterior sclera): 611 +/− 24 nanomol/mg tissue
Proline content (sclera [3]; posterior sclera): 871 +/− 35 nanomol/mg tissue

CCCn1cnc2[nH]c(=O)[nH]c(=O)c21 [7-Propylxanthine]
Bound [3H]ryanodine % of control (skeletal RyR; control (-xanthine) = 100): 270 ± 12 % of control
Bound [3H]ryanodine pmol/mg protein (skeletal RyR): 4.57 ± 0.20 pmol/mg protein
Bound [3H]ryanodine, % of control, +1 mmol/l AMPPCP (skeletal RyR; control (-xanthine) = 100): 270 ± 12 % of control
Bound [3H]ryanodine, % of control, +3 mmol/l AMP (skeletal RyR; control (-xanthine) = 100): 234 ± 14 % of control

C#CCn1c(=O)c2c(ncn2C)n(C)c1=O [3,7-Dimethyl-1-propargylxanthine]
Bound [3H]ryanodine % of control (skeletal RyR; control 3,7-dimethylxanthine = 100): 144 ± 3 % of control
Bound [3H]ryanodine pmol/mg protein (skeletal RyR): 3.88 ± 0.10 pmol/mg protein
Bound [3H]ryanodine, % of control, +1 mmol/l AMPPCP (skeletal RyR; control (-xanthine) = 100): 230 ± 6 % of control
Bound [3H]ryanodine, % of control, +3 mmol/l AMP (skeletal RyR; control (-xanthine) = 100): 201 ± 33 % of control
